Active and inactive are the calls of the source. The rule behind the calls is not given here.
molecular target: Peptidyl-prolyl cis-trans isomerase FKBP1A (Homo sapiens) (UniProt P62942); assay: FKBP12 binders, biophysical, NMR detection (AID 608); conditions: NMR binding, purified FKBP12
Sequence (P62942 whole entry, looked up): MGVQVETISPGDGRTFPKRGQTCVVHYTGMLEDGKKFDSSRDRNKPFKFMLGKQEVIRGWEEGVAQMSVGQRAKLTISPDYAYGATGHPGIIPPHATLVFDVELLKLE

Row | SMILES | Kd
1 | COc1ccc([C@@H]2CC(=O)c3c(O)cc(O[C@@H]4O[C@H](CO[C@H]5O[C@@H](C)[C@H](O)[C@@H](O)[C@H]5O)[C@@H](O)[C@H](O)[C@H]4O)cc3O2)cc1O | > 4 mM (inactive)
2 | CCn1nnnc1Oc1ccc(Cl)cc1 | > 4 mM (inactive)
3 | CC1(C(=O)O)CC2C=CC1C2 (stereo not given) | > 4 mM (inactive)
4 | COc1cc([C@@H]2c3cc4c(cc3[C@H](OC(C)=O)[C@H]3COC(=O)[C@H]23)OCO4)cc(OC)c1OC | > 4 mM (inactive)
5 | CCC1(CC)C(=O)NC(=O)N=C1N | > 4 mM (inactive)
6 | COc1cc(-c2coc3cc(OC)c(OC)c(OC)c3c2=O)cc(OC)c1OC | > 4 mM (inactive)
7 | CCN1CCC(=NO)CC1 | > 4 mM (inactive)
8 | Cc1cc(C)c(OCC(=O)N2CCOCC2)c(C)c1 | inactive
9 | Nc1ncnc(NCCO)c1[N+](=O)[O-] | > 4 mM (inactive)
10 | CN1CCn2c1nc(N1CCOCC1)nc2=O | > 4 mM (inactive)
11 | CCNS(=O)(=O)c1ccc(OC)c(C)c1 | > 4 mM (inactive)
12 | CC1(C)CC2C1CC[C@]1(C)CCC3C(C(=O)O)CC(=O)O[C@@]32C1 (stereo not given in full) | > 4 mM (inactive)
13 | Cc1n[nH]c(=O)nc1N1CCN(c2ccccc2)CC1 | > 4 mM (inactive)
14 | CCc1ccccc1NC(=O)c1cnccn1 | > 4 mM (inactive)
15 | Cc1cc(OCC(=O)N2CCOCC2)ccc1C(C)C | inactive
16 | COc1c2c(cc3cc[n+](C)cc13)OCO2 | > 4 mM (inactive)
17 | Cc1c(C(=O)N2CCOCC2)oc2c1C(=O)CC(C)(C)C2 | > 4 mM (inactive)
18 | NC1CCN(Cc2ccccc2)CC1 | > 4 mM (inactive)
19 | O=C(/C=C/c1ccccc1)c1ccc(O)cc1 | > 4 mM (inactive)
20 | O=C(O)c1ccc2c(c1)OCO2 | > 4 mM (inactive)

Row | SMILES | Kd
21 | NC(CC(=O)O)C(=O)Nc1ccc(Cl)cc1 (stereo not given) | > 4 mM (inactive)
22 | O=C(Nc1ccc(Cl)cn1)c1cnn2cccnc12 | > 4 mM (inactive)
23 | Cc1cc(NC(=O)c2ocnc2C)no1 | > 4 mM (inactive)
24 | OCC1CNc2ccccc2O1 (stereo not given) | > 4 mM (inactive)
25 | Cc1cc(N2C(=O)CCC2=O)n(-c2ccccc2)n1 | > 4 mM (inactive)
26 | Cc1cc(=O)[nH]c(N2CCN(Cc3ccccc3)CC2)n1 | > 4 mM (inactive)
27 | CCC(CCC(C)[C@H]1CCC2C3CC=C4C[C@@H](O)CC[C@]4(C)C3CC[C@@]21C)C(C)C (stereo not given in full) | > 4 mM (inactive)
28 | Nc1nc2ccc(S(N)(=O)=O)cc2s1 | > 4 mM (inactive)
29 | CSc1ccc(/C=N/n2c(C)nnc2C)cc1 | > 4 mM (inactive)
30 | Nc1ccc2ncsc2c1 | > 4 mM (inactive)
31 | COc1c(-c2ccccc2)oc2c(OC)cccc2c1=O | > 4 mM (inactive)
32 | CCOc1ccc2ccccc2c1C(=O)N1CCOCC1 | > 4 mM (inactive)
33 | CCc1ccc(OCC(=O)N2CCOCC2)cc1 | 0.435 mM
34 | O=S(=O)(Nc1ccc(Br)cc1)N1CCOCC1 | inactive
35 | FC(F)(F)c1cc(-c2ccco2)nc(N2CCOCC2)n1 | > 4 mM (inactive)
36 | Fc1ccc(-c2n[nH]c(=S)n2CC2CCCO2)cc1 (stereo not given) | > 4 mM (inactive)
37 | CN1CCC=C(C(=O)O)C1 | > 4 mM (inactive)
38 | Nc1ccc(S(=O)(=O)N2CCCCC2)cc1 | > 4 mM (inactive)
39 | O=C1c2ccccc2C(=O)c2c(O)c(O)cc(O)c21 | > 4 mM (inactive)
40 | Cc1ccccc1-n1c(-c2ccncc2)n[nH]c1=S | > 4 mM (inactive)

Row | SMILES | Kd
41 | COCC(=O)N1CCCc2ccccc21 | > 4 mM (inactive)
42 | COC(=O)c1noc(C)c1C(C)=O | > 4 mM (inactive)
43 | COc1c(O)cc2c(c1O)[C@H]1O[C@H](CO)[C@@H](O)[C@H](O)[C@@H]1OC2=O | > 4 mM (inactive)
44 | Cc1ccc(/C=C/C(=O)O)cc1S(=O)(=O)NCCO | > 4 mM (inactive)
45 | Cc1nc2ccccc2n1S(=O)(=O)N1CCOCC1 | inactive
46 | Nc1cccc(OC(F)(F)F)c1 | > 4 mM (inactive)
47 | O=C(NC1CCS(=O)(=O)C1)C1CCCCC1 (stereo not given) | > 4 mM (inactive)
48 | C=C1C[C@]23C[C@@]1(O)CC[C@H]2[C@@]12C=C[C@H](O)C(C)(C(=O)O1)[C@H]2[C@@H]3C(=O)O | > 4 mM (inactive)
49 | OCCNC(=S)Nc1ccccc1 | > 4 mM (inactive)
50 | NCc1ccccc1N1CCCCC1 | > 4 mM (inactive)
51 | O=C(O)CCCNC(=O)c1ccccc1C(=O)O | > 4 mM (inactive)
52 | CC(C)n1nnc2cc(C(=O)O)ccc21 | > 4 mM (inactive)
53 | O=S1(=O)CCC(NCc2ccccc2)C1 (stereo not given) | > 4 mM (inactive)
54 | CSc1nc2[nH]ncc2c(=O)[nH]1 | > 4 mM (inactive)
55 | NC(=O)c1cc2c(n(-c3ccccc3)c1=O)CCCC2=O | > 4 mM (inactive)
56 | CC(=O)Oc1ccc(/C=C/c2cc(OC(C)=O)cc(OC(C)=O)c2)cc1 | > 4 mM (inactive)
57 | O=C(O)CCC(=O)NCc1cccnc1 | > 4 mM (inactive)
58 | Cc1csc(NC(=O)c2cccs2)n1 | > 4 mM (inactive)
59 | COC(=O)c1nc(-c2ccccc2)oc1N(C)C | > 4 mM (inactive)
60 | CC(=O)c1ccc(NC(=O)c2ocnc2C)cc1 | > 4 mM (inactive)

— PubChem BioAssay AID608 (Sanford-Burnham Center for Chemical Genomics, 2007)
